Some targets named below: Cytochrome P450 2D6 (Homo sapiens, UniProt P10635); Cytochrome P450 2C9 (Homo sapiens, UniProt P11712); Cytochrome P450 3A4 (Homo sapiens, UniProt P08684).
Another data set has as its target Cytochrome P450 2C19 (Homo sapiens, UniProt P33261). Description: Cytochrome panel assay with activity outcomes. Panel member name: p450-cyp2c19 Compounds with AC50 equal or less than 10 uM are considered active. The data set is classed as functional.
The next data set has as its target T1, Cytochrome P450 1A2 (Homo sapiens, UniProt P05177).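 Further: PubChem cytochrome P450 panel assay, CYP1A2 panel member.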
T1 sequence (P05177 whole entry): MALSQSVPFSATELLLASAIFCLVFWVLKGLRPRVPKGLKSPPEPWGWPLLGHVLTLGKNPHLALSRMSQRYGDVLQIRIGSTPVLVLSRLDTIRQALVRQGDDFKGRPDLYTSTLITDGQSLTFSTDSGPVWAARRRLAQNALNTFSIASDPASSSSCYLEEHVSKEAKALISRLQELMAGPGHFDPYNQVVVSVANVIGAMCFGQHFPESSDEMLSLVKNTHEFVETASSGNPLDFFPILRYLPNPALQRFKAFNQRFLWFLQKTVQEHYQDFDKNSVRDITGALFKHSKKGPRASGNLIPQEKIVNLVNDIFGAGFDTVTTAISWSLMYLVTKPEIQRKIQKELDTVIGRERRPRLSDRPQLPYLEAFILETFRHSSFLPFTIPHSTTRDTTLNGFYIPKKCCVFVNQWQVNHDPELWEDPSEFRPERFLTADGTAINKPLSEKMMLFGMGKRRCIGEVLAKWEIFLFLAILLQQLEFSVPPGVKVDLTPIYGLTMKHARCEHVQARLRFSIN

A short description of data set [1]: Luminescence Cell-Based Dose Retest to Confirm Inhibitors of Cancer Stem Cells. [Related pubchem assays (depositor defined):AID2717, AID2721]. Particulars: Homo sapiens. It is filed as functional.
A short description of data set [2]: NIH-3T3 fibroblast cytotoxicity, dose response, cytotoxicity control, cell-based, fluorescence, Alamar Blue, secondary assay (AID 2327).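 Further: NIH-3T3 mouse fibroblasts cultured with fluconazole at 8 µg/mL.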 The data set is classed as functional. In general terms: Alamar Blue is a resazurin reagent that responds to reducing activity.
The target in data set [3] is T2, Serine/threonine-protein phosphatase (Candida dubliniensis (strain CD36 / CBS 7987 / NCPF 3949 / NRRLY-17841) (Yeast), UniProt B9W6M3).
T2 sequence (B9W6M3 whole entry): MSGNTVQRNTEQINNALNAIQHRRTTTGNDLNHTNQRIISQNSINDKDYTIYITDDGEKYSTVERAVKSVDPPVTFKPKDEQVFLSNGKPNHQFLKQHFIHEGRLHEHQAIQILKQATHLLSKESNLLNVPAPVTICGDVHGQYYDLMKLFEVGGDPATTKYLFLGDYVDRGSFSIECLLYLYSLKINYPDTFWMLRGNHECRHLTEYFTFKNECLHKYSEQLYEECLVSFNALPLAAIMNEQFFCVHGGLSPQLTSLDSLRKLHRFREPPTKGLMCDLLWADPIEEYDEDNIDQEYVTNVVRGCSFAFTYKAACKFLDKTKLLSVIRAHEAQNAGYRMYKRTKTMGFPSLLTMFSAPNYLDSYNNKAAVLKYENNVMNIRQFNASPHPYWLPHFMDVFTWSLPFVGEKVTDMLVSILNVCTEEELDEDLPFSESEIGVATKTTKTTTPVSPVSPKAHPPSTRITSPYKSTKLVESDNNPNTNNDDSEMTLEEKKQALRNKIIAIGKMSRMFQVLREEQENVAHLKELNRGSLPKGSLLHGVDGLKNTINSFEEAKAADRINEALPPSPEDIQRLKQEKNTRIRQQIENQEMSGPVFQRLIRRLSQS
Kind of data set: calcineurin pathway inhibitors in yeast reporter, dose response, S. cerevisiae, CDRE-lacZ, luminescence, secondary (AID 2388).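 Further: yeast reporter cells carrying a calcineurin-responsive lacZ construct stimulated with calcium chloride; luminescent beta-galactosidase reporter signal in whole cells rather than isolated phosphatase activity; potency for inhibition where a drop in reporter signal means calcineurin blockade.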 The data set is classed as functional, cell-based.

Data set [4] can be described thus: C. albicans growth with fluconazole, confirmation, fluorescence, retest (AID 2467). The data set is classed as functional, cell-based.
For data set [5], the target named is Heat shock protein HSP 90-alpha (Homo sapiens, UniProt P07900). The data set is classed as functional, organism-based.
Data set [6] concerns the target T2, Serine/threonine-protein phosphatase. Kind of data set: Fluorescence Cell-Based Secondary Assay to Identify Inhibitors of Calcineurin. [Related pubchem assays (depositor defined):AID1979, AID2007]. It is filed as functional.
A short description of data set [7]: cytotoxicity in MIN6 insulinoma cells, dose response, cytotoxicity control, cell-based, mouse insulinoma (AID 2122).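 Further: confirmatory high-throughput counterscreen run to flag cytotoxic compounds; mouse MIN-6 beta cells carrying an insulin promoter eGFP reporter.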 It is filed as functional.
The nature of data set [8]: THP-1 cell cytotoxicity, dose response, cytotoxicity control for non-replicating M. tuberculosis project (AID 489025). The data set is classed as functional.
Data set [9] is described as follows: inhibitors of clade B AD8 Env fusion, dose response, cell-based, cherry-pick (AID 652062).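 Further: luciferase signal from cell-cell fusion driven by HIV-1 clade B AD8 Env; potency is for inhibitors of fusion seen as a drop in luminescence.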 It is filed as functional.
A short description of data set [10]: insulin promoter down-regulators in MIN6 cells, imaging, high-content screening, mouse beta cells (AID 1628). The data set is classed as functional.
Data set [11] can be described thus: inhibitors of HIV Env-driven cell fusion, dose response, cherry-pick (AID 652057). The data set is classed as functional, cell-based.
Data set [12] can be described thus: ZM109 Env clade C HIV-1 fusion inhibitors, dose response, HeLa effector, CEM target cells, luciferase, cherry-pick (AID 652058). The data set is classed as functional, cell-based.
A short description of data set [13]: HepG2 cell cytotoxicity, dose response, cytotoxicity control for non-replicating M. tuberculosis project (AID 489018). The data set is classed as functional. The note with it: Mycobacterium tuberculosis.
Data set [14] is described as follows: cells. It is filed as functional.
Data set [15] is described as follows: CEM21 lymphoblast cell cytotoxicity, dose response, cytotoxicity control for viral fusion inhibitor project, CellTiter-Glo luminescence, cherry-picked (AID 652042).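 Further: potency for signal decrease meaning cytotoxicity.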 It is filed as functional, cell-based.
The nature of data set [16]: off-target signal loss in HeLa-CEM21 co-culture – HeLa F-luc CTL cells, cherry-picked, counter-screen for HIV-1 Env fusion inhibitor project, dose response (AID 652040).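 Further: potency for signal decrease marking cytotoxic or nonspecific inhibition.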 The data set is classed as functional, cell-based. In general terms: The purpose of a counterscreen is to sort out artefacts and off-target activity.
Data set [17] deals with Streptococcus sp. 'group A'. Description: growth inhibition of control SK(-) GAS strain, dose response, counter-screen for streptokinase expression inhibitor project, luminescence, kanamycin, BacTiterGlo, confirmation (AID 1900). The data set is classed as functional, organism-based.
In a further data set the test system is Streptococcus. Description: Group A Streptococcus viability loss, dose response, counter-screen for streptokinase expression inhibitor project, luminescence, BacTiterGlo (AID 1915).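 Further: potency for reduction of bacterial viability or growth.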 It is filed as functional, organism-based.
A short description of data set [18]: cytotoxicity in HMLE control line with eGFP shRNA, dose response, counter-screen for HMLE_sh_ECad selective toxicity project, cell-based, HMLE_sh_eGFP, luminescence (AID 463074).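 Further: HMLE human mammary epithelial cells expressing control shRNA against eGFP.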 It is filed as functional, Homo sapiens.
Data set [19] is described as follows: Luminescence Cell-Based Secondary HTS screen to identify cytotoxic compounds of NIH3T3 cells. [Related pubchem assays: 1885, 1968 ]. It is filed as functional.
A short description of data set [20]: cells.
Data set [21] in a line: inhibitors of intracellular T. cruzi replication, confirmation, NIH3T3 host cells, beta-gal luminescence (AID 2044).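 Further: intracellular parasites grown in NIH/3T3 mouse fibroblasts as host cells; luminescent beta-galactosidase reporter signal from transgenic T. cruzi replicating inside host cells; inhibitors lower the luminescence signal.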 It is filed as functional, cell-based.
The nature of data set [22]: cytotoxicity toward NIH3T3 fibroblasts, dose response, counter-screen, cell-based, ATP luminescence, mouse fibroblasts (AID 2010).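 Further: cells exposed to compound for about 90 hours before reading.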 The data set is classed as functional.
The nature of data set [23]: Luminescence Cell-Based/Microorganism Confirmation at Dose of Inhibitors of Trypanosoma cruzi Infection. [Related pubchem assays: 1885, 1968 ]. The data set is classed as functional.
Data set [24] can be described thus: inhibitors of Trypanosoma cruzi host-cell infection, confirmation, beta-gal luminescence, NIH3T3 host cells (AID 2630). The data set is classed as functional, cell-based. The note with it: Mus musculus.

SMILES strings stand for the structures. Active and inactive are the calls of the source. Where only a bound is given, the exact number is not on record here.

Cytochrome P450 2C9, sequence (P11712 whole entry): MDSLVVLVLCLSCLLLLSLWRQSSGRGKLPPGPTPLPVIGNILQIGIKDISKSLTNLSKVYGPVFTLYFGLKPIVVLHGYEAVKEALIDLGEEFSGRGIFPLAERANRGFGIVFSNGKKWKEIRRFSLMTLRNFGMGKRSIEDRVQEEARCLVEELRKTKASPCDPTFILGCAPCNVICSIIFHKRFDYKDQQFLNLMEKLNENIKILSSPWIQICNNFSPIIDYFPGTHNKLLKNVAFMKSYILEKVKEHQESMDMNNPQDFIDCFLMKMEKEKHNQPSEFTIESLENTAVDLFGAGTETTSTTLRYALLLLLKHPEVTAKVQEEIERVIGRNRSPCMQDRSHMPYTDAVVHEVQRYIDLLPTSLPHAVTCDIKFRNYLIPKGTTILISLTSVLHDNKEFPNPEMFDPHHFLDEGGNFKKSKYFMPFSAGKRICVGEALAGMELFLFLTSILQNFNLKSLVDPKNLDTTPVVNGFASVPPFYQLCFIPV
Cytochrome P450 2D6, sequence (P10635 whole entry): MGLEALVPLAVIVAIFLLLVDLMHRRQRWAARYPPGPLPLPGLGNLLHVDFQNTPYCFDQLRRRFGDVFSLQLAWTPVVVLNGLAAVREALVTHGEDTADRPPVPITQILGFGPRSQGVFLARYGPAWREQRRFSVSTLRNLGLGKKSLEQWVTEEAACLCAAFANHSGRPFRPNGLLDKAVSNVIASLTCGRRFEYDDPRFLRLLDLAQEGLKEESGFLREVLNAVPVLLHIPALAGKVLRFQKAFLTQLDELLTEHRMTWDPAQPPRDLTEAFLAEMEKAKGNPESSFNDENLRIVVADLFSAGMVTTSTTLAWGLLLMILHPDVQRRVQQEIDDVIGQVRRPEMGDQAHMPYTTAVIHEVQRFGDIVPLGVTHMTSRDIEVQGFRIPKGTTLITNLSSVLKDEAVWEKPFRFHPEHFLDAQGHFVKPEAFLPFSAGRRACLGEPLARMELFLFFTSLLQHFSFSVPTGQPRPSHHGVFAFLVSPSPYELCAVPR
Cytochrome P450 2C19, sequence (P33261 whole entry): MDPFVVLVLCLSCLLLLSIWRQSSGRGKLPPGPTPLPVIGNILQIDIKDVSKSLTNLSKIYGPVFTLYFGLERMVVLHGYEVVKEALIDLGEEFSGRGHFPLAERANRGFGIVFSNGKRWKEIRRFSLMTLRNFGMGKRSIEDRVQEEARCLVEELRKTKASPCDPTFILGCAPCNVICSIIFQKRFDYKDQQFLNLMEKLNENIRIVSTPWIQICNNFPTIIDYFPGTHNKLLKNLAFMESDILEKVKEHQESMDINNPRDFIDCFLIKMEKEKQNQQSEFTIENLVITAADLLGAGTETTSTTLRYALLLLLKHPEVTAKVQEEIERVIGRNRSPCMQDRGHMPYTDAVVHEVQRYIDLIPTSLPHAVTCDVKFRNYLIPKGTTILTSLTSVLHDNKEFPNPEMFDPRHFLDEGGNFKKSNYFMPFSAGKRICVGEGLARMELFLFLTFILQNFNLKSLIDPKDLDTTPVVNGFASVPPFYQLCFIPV
Cytochrome P450 3A4, sequence (P08684 whole entry): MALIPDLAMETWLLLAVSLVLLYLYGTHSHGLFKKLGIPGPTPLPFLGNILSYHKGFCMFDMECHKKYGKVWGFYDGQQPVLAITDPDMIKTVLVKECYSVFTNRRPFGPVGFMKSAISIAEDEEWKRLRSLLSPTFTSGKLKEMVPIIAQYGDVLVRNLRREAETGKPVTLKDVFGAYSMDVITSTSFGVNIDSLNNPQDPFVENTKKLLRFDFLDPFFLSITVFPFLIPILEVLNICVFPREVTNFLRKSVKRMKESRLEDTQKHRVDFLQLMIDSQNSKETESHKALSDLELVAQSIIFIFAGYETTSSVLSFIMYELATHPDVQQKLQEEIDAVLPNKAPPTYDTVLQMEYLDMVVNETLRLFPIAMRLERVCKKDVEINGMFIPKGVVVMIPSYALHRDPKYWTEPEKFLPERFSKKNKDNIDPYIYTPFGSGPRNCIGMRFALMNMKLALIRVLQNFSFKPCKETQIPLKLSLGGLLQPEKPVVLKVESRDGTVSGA

Broadly, the AC50 is the concentration at which the activity in the assay is half-maximal. Regarding `FC(F)(F)c1cc(CN2CC[C@@]3(CCCNC3)C2)cc(C(F)(F)F)c1`, the AC50 entry is “inconclusive” at Cytochrome P450 2C19; “inconclusive” on Cytochrome P450 2D6; “inconclusive” at Cytochrome P450 2C9; “inconclusive” at Cytochrome P450 1A2; 3.98 µM (inconclusive) at Cytochrome P450 3A4.

Usually EC50 stands for the concentration needed to bring the measured effect to its halfway point. With `O=C(NNC1=C(C(=O)C(F)(F)F)CCC1)c1ccc(Cl)cc1`, the results for the AC50 in [1] and in [5] were 2.75 µM (active) and 3.37 µM (active), respectively. Also, the EC50 is 23.5 µM (active) in data set [2], > 180 µM (inactive) in data set [3], 0.126 µM (active) in [4] and 13.5 µM (active) in [6].

By IC50 is commonly meant the point on the concentration scale where inhibition reaches its midpoint. Broadly, the CC50 is the concentration giving 50% cytotoxicity. For the compound `CC(C)[C@@H]1CC[C@@H](C)C[C@H]1OC(=O)C[n+]1cc(-c2ccc(Cl)cc2)n2c1CCCCC2`, the IC50 in data set [7] was 1.16 µM (active); in data set [10], 1.14 µM (active); in the data set “cells [14]”, 6.86 µM (active). The CC50 in data set [8] was 4.52 µM (active); in [13] it was > 20 µM (active). In addition, the AC50 is 9.97 µM (active) in [9]; 16.3 µM (active) in [11]; 8.56 µM (active) in data set [12]; 8.93 µM (active) in [15]; 37 µM (active) in data set [16]. In addition, the figures for the EC50 in [2] and in [4] were 23.8 µM (inconclusive) and 0.225 µM (active), respectively.

Turning to `CCN(c1ccccc1)S(=O)(=O)c1ccc(C(=O)Nc2nnc(-c3ccco3)o2)cc1`, the AC50 in data set [1] was 2.63 µM (active); in [18], 32.4 µM (active). The EC50 was 1.61 µM (active) in data set [17] and 5.63 µM (active) in the data set on Streptococcus.

As for `CCn1ncc(CN2CCCC(C(=O)c3cccc(OC(C)C)c3)C2)c1C` (stereo not drawn), the EC50 in [19] was > 195 µM (not active); in “cells [20]”, 0.032 µM (active); in [21], < 0.1 µM (active); in [22] it was > 60 µM (inconclusive); in data set [23], 0.062 µM (active); in data set [24], 0.062 µM (active).
